This passage reports inhibition and melting point results from article PMC9499365, “Stereoselective Synthesis and Application of Gibberellic Acid-Derived Aminodiols” (International Journal of Molecular Sciences, 2022).

Series [1] relates to MDA-MB-231 cells (breast cancer). Nature of the series: MTT antiproliferative assay, MDA-MB-231. The conditions noted are these: Homo sapiens, 72 h, read-out: Growth inhibition (%) ± SEM; for inhibition at 10 µM: MDA-MB-231, 10 μM; for inhibition at 30 µM: MDA-MB-231, 30 μM. The series is classed as cell-based, human. On the procedure:
(§1) The in vitro antiproliferative activities of the synthesized aminodiols 4–38 against a panel of different human cancer cell lines of gynecological origin, including cervical (SiHA and HeLa), breast (MCF7 and MDA-MB-231), and ovary (A2780) cancers were assayed by the MTT method. […] Cisplatin, a clinically applied anticancer agent, was used as a reference compound and the results are summarized in Figure 3 and Table S1 in Supporting Information. […] On the other hand, none of the prepared azole derivatives exerted relevant activity.
(§2) The growth-inhibitory effects of the gibberellic acid-based aminodiol derivatives were determined by a standard MTT (3-(4,5-dimethylthiazol-2-yl)-2,5-diphenyltetrazolium bromide) assay on a panel containing five cell lines, including Hela and Siha (cervical cancers); MDA-MB-231 and MCF-7 (breast cancers); and A2780 ovarian cancer cells. The most promising agents were additionally tested against NIH/3T3 mouse embryo fibroblast cells. All cell lines were purchased from the European Collection of Cell Cultures (Salisbury, UK) except SiHa, which was obtained from the American Tissue Culture Collection (Manassas, VA, USA). The cells were maintained in minimal essential medium supplemented with 10% fetal bovine serum, 1% non-essential amino acids, and 1% penicillin-streptomycin at 37 °C in a humidified atmosphere containing 5% CO2. All media and supplements were obtained from Lonza Group Ltd., (Basel, Switzerland). Cancer cells were seeded into 96-well plates (5000 cells/well), after an overnight incubation the test compound was added in 2 different concentrations (10 µM and 30 µM) and incubated for another 72 h under cell-culturing conditions. Then, 20 μL of 5 mg/mL MTT solution was added to each well and incubated for a further 4 h. The medium was removed, and the precipitated formazan crystals were dissolved in DMSO during 60 min of shaking at 37 °C. As the final step, the absorbance was measured at 545 nm by using a microplate reader (SPECTROStar Nano, BMG Labtech, Offenburg, Germany). Untreated cells were included as controls. […] These agents were additionally tested against NIH/3T3 fibroblasts to obtain results about their cancer selectivity. Two independent experiments were performed with five wells for each condition. Cisplatin (Ebewe GmbH, Unterach, Austria), a clinically used anticancer agent, was used as a positive control. Calculations were performed utilizing the GraphPad Prism 5.01 software (GraphPad Software Inc., San Diego, CA, USA).
(Tetrazolium assays rely on reduction of a dye to a coloured formazan, in cell work by metabolically active cells.)

Series [2] deals with A2780 ovarian cancer cells. Briefly: MTT antiproliferative assay, A2780. The series is classed as cell-based, human. The conditions noted are these: Homo sapiens, 72 h, read-out: Growth inhibition (%) ± SEM; for inhibition at 10 µM: A2780, 10 μM; for inhibition at 30 µM: A2780, 30 μM. On the procedure:
as §1, §2

Series [3] relates to HeLa cells (cervical cancer). Nature of the series: MTT antiproliferative assay, HeLa. The class given is cell-based, human. Conditions: Homo sapiens, 72 h, read-out: Growth inhibition (%) ± SEM. On the procedure:
as §1, §2

The test system of series [4] is SiHa cells (cervical cancer). Briefly: MTT antiproliferative assay, SiHa. The conditions noted are these: Homo sapiens, 72 h, read-out: Growth inhibition (%) ± SEM. The class given is cell-based, human. As to the method:
as §1, §2

One may read the inhibition as the relative decrease from the control value, in per cent. As a reminder, the melting point is the temperature, or range, at which the solid turns liquid. As for `CCOC(=O)[C@H]1c2c(C)cccc2[C@H]2CC[C@]3(O)C[C@@]21C[C@]3(O)CNCc1ccccc1` [Compound 4, Ethyl (4bS,7S,8S,9aR,10R)-8-((benzylamino)methyl)-7,8-dihydroxy-1-methyl-4b,6,7,8,9,10-hexahydro-5H-7,9a-methanobenzo[a]azulene-10-carboxylate], the melting point fell in the range of 97 to 99 °C. Also, in series [1], the inhibition at 10 µM was less than 20% and the inhibition at 30 µM came out at 31.6 ± 1.49%. For the same compound, in series [2], the inhibition at 10 µM was less than 20% and the inhibition at 30 µM was 49.9 ± 1.76%. Also, in series [3], the inhibition at 10 µM came to 26.9 ± 1.55% and the inhibition at 30 µM came out at 25.9 ± 3.2%. In addition, in series [4], the inhibition at 10 µM was found to be 23.3 ± 0.63% and the inhibition at 30 µM is 57 ± 1.16%.
As for `CCOC(=O)[C@H]1c2c(C)cccc2[C@H]2CC[C@]3(O)C[C@@]21C[C@]3(O)CN[C@@H](C)c1ccccc1` [Compound 5, Ethyl (4bS,7S,8S,9aR,10R)-7,8-dihydroxy-1-methyl-8-((((S)-1-phenylethyl)amino)methyl)-4b,6,7,8,9,10-hexahydro-5H-7,9a-methanobenzo[a]azulene-10 carboxylate], the inhibition at 10 µM is less than 20% in series [1], 30.42 ± 0.22% in series [2], 22.3 ± 5.01% in series [3] and less than 20% in series [4]. In addition, the inhibition at 30 µM in series [1] was 64.9 ± 1.91%; in series [2], 51.6 ± 2.69%; in series [3] it was 51 ± 9.48%; in series [4] it was 48.3 ± 4.04%.
`CCOC(=O)[C@H]1c2c(C)cccc2[C@H]2CC[C@]3(O)C[C@@]21C[C@]3(O)CN[C@H](C)c1ccccc1` [Compound 6, Ethyl (4bS,7S,8S,9aR,10R)-7,8-dihydroxy-1-methyl-8-((((R)-1-phenylethyl)amino)methyl)-4b,6,7,8,9,10-hexahydro-5H-7,9a-methanobenzo[a]azulene-10-carboxylate] gave a melting point of 104 to 105 °C. Besides, in series [1], the inhibition at 10 µM is less than 20% and the inhibition at 30 µM was 85.1 ± 1.38%. In addition, in series [2], the inhibition at 10 µM is 25.3 ± 0.27% and the inhibition at 30 µM is 61.9 ± 1.25%. For the same compound, in series [3], the inhibition at 10 µM stood at 21.4 ± 1.7% and the inhibition at 30 µM was 63.1 ± 1.81%. Also, in series [4], the inhibition at 10 µM is less than 20% and the inhibition at 30 µM turned out to be 65.9 ± 2.48%.
Compound `CCOC(=O)[C@H]1c2c(C)cccc2[C@H]2CC[C@]3(O)C[C@@]21C[C@]3(O)CN[C@H](CC)c1ccccc1` [Compound 7, Ethyl (4bS,7S,8S,9aR,10R)-7,8-dihydroxy-1-methyl-8-((((R)-1-phenylpropyl)amino)methyl)-4b,6,7,8,9,10-hexahydro-5H-7,9a-methanobenzo[a]azulene-10-carboxylate] yielded a melting point of 55 to 57 °C. Moreover, in series [1], the inhibition at 10 µM was less than 20% and the inhibition at 30 µM amounted to 70.38 ± 0.07%. Moreover, in series [2], the inhibition at 10 µM is less than 20% and the inhibition at 30 µM was 65 ± 2.44%. Further, in series [3], the inhibition at 10 µM was less than 20% and the inhibition at 30 µM stood at 45 ± 0.97%. For the same compound, in series [4], the inhibition at 10 µM was found to be 28.9 ± 1.16% and the inhibition at 30 µM stood at 94.3 ± 1.48%.
In turn, `CCOC(=O)[C@H]1c2c(C)cccc2[C@H]2CC[C@]3(O)C[C@@]21C[C@]3(O)CN[C@@H](CC)c1ccccc1` [Compound 8, Ethyl (4bS,7S,8S,9aR,10R)-7,8-dihydroxy-1-methyl-8-((((S)-1-phenylpropyl)amino)methyl)-4b,6,7,8,9,10-hexahydro-5H-7,9a-methanobenzo[a]azulene-10-carboxylate] yielded a melting point of 114 to 115 °C. Moreover, in series [1], the inhibition at 10 µM is less than 20% and the inhibition at 30 µM stood at 97.52 ± 0.67%. In series [2], the inhibition at 10 µM was found to be 39.5 ± 1.27% and the inhibition at 30 µM was determined as 96.38 ± 0.13%. For the same compound, in series [3], the inhibition at 10 µM was 27.5 ± 0.41% and the inhibition at 30 µM came out at 98.05 ± 0.07%. In addition, in series [4], the inhibition at 10 µM is 29.7 ± 1.54% and the inhibition at 30 µM came to 98.38 ± 0.44%.
As for `CCOC(=O)[C@H]1c2c(C)cccc2[C@H]2CC[C@]3(O)C[C@@]21C[C@]3(O)CNC(C)C` [Compound 19, Ethyl (4bS,7S,8S,9aR,10R)-7,8-dihydroxy-8-((isopropylamino)methyl)-1-methyl-4b,6,7,8,9,10-hexahydro-5H-7,9a-methanobenzo[a]azulene-10-carboxylate], the melting point is 102 to 103 °C.
With `C#CCNC[C@@]1(O)C[C@]23C[C@@]1(O)CC[C@@H]2c1cccc(C)c1[C@@H]3C(=O)OCC` [Compound 20, Ethyl (4bS,7S,8S,9aR,10R)-7,8-dihydroxy-1-methyl-8-((prop-2-yn-1-ylamino)methyl)-4b,6,7,8,9,10-hexahydro-5H-7,9a-methanobenzo[a]azulene-10-carboxylate], the melting point lay in the range of 111 to 112 °C.
The compound `CCOC(=O)[C@H]1c2c(C)cccc2[C@H]2CC[C@]3(O)C[C@@]21C[C@]3(O)CN1CCCCC1` [Compound 21, Ethyl (4bS,7S,8S,9aR,10R)-7,8-dihydroxy-1-methyl-8-(piperidin-1-ylmethyl)-4b,6,7,8,9,10-hexahydro-5H-7,9a-methanobenzo[a]azulene-10-carboxylate] displayed a melting point of 84 to 86 °C.
Compound `CCOC(=O)[C@H]1c2c(C)cccc2[C@H]2CC[C@]3(O)C[C@@]21C[C@]3(O)CN1CCN(C)CC1` [Compound 22, Ethyl (4bS,7S,8S,9aR,10R)-7,8-dihydroxy-1-methyl-8-((4-methylpiperazin-1-yl)methyl)-4b,6,7,8,9,10-hexahydro-5H-7,9a-methanobenzo[a]azulene-10-carboxylate] gave a melting point of 42 to 45 °C.
Still for that read-out and setting: the value for `CCOC(=O)[C@H]1c2c(C)cccc2[C@H]2CC[C@]3(O)C[C@@]21C[C@]3(O)Cn1cncn1` [Compound 28, Ethyl (4bS,7S,8S,9aR,10R)-8-((1H-1,2,4-triazol-1-yl)methyl)-7,8-dihydroxy-1-methyl-4b,6,7,8,9,10-hexahydro-5H-7,9a-methanobenzo[a]azulene-10-carboxylate] was 87 to 89 °C; that for `CCOC(=O)[C@H]1c2c(C)cccc2[C@H]2CC[C@]3(O)C[C@@]21C[C@]3(O)Cn1ccnn1` [Compound 29, Ethyl (4bS,7S,8S,9aR,10R)-8-((1H-1,2,3-triazol-1-yl)methyl)-7,8-dihydroxy-1-methyl-4b,6,7,8,9,10-hexahydro-5H-7,9a-methanobenzo[a]azulene-10-carboxylate] was 90 to 92 °C.
As for `CCOC(=O)[C@@H]1c2c(C)cccc2C2CC[C@]3(O)C[C@@]21C[C@]3(O)CN[C@@H](C)c1cccc2ccccc12` (stereo partly drawn) [Compound 36, Ethyl (7S,8S,9aR,10S)-7,8-dihydroxy-1-methyl-8-((((S)-1-(naphthalen-1-yl)ethyl)amino)methyl)-4b,6,7,8,9,10-hexahydro-5H-7,9a-methanobenzo[a]azulene-10-carboxylate], the inhibition at 10 µM in series [1] was found to be 46.9 ± 1.05%; in series [2] it was 46.7 ± 1.46%; in series [3], 31.1 ± 2.01%; in series [4] it was 31.4 ± 1.21%. Further, the inhibition at 30 µM in series [1] was determined as 95.53 ± 0.83%; in series [2], 94.81 ± 0.11%; in series [3], 95.4 ± 2.87%; in series [4] it was 97.69 ± 0.58%.
`CCOC(=O)[C@@H]1c2c(C)cccc2C2CC[C@]3(O)C[C@@]21C[C@]3(O)CN[C@H](C)c1cccc2ccccc12` (stereo partly drawn) [Compound 37, Ethyl (7S,8S,9aR,10S)-7,8-dihydroxy-1-methyl-8-((((R)-1-(naphthalen-1-yl)ethyl)amino)methyl)-4b,6,7,8,9,10-hexahydro-5H-7,9a-methanobenzo[a]azulene-10-carboxylate]: the inhibition at 10 µM was less than 20% in series [1], 35.9 ± 0.89% in series [2], 35.8 ± 0.42% in series [3] and 34.5 ± 1.89% in series [4]. In addition, the inhibition at 30 µM turned out to be 96.64 ± 0.17% in series [1], 96 ± 0.99% in series [2], 97.35 ± 0.69% in series [3] and 97.58 ± 0.47% in series [4].
